Where “and” joins values, the source holds several entries; their conditions need not be identical. Identical values can stand only once. Like-named read-outs stand apart in the source and are kept apart here.
Tests used:
[1] = Open label dose-ranging study 402-C-0902 in type 2 diabetic patients with stage 3b-4 CKD; assay type: in vivo, human; set-up: ΔSBP, change from baseline / ΔDBP, change from baseline: unit not given beside the values
[2] = BEACON 24-hour ABPM / 24-hr urine collection sub-study; assay type: in vivo, human
Excerpt: A subset of the BEACON patients consented to additional 24-hour assessments including ambulatory blood pressure monitoring (ABPM) and 24-hour urine collections. An independent Events Adjudication Committee (EAC), blinded to study treatment assignment, evaluated whether renal events, cardiovascular events, and neurological events met the pre-specified definitions of the primary and secondary endpoints. An IDMC, consisting of external clinical experts supported by an independent statistical group, reviewed unblinded safety data throughout the study and made recommendations as appropriate.
A subset of patients consented to additional 24-hr assessments (sub-study) of ambulatory blood pressure monitoring (ABPM) and 24-hr urine collection at selected visits. […] Also of note, reductions in serum magnesium were not associated with renal loss of magnesium.

[3] = Thorough QT Study in healthy volunteers; assay type: in vivo, human; details: 6 days
Experimental: Intensive blood pressure monitoring was employed in a separate Thorough QT Study, which was conducted in healthy volunteers.

[4] = 2.5 mg once daily 85 days, CKD Stage 3b/4, N = 14
[5] = 2.5 mg once daily 85 days, CKD Stage 3b, N = 10
[6] = 2.5 mg once daily 85 days, CKD Stage 4, N = 4
[7] = 5 mg once daily 85 days, CKD Stage 3b/4, N = 24
[8] = 5 mg once daily 85 days, CKD Stage 3b, N = 19
[9] = 5 mg once daily 85 days, CKD Stage 4, N = 5
[10] = 10 mg once daily 85 days, CKD Stage 3b/4, N = 24
[11] = 10 mg once daily 85 days, CKD Stage 3b, N = 20
[12] = 10 mg once daily 85 days, CKD Stage 4, N = 4
[13] = 15 mg once daily 85 days, CKD Stage 3b/4, N = 48
[14] = 15 mg once daily 85 days, CKD Stage 3b, N = 26
[15] = 15 mg once daily 85 days, CKD Stage 4, N = 22
[16] = 30 mg once daily 85 days, CKD Stage 3b/4, N = 12
[17] = 30 mg once daily 85 days, CKD Stage 3b, N = 3
[18] = 30 mg once daily 85 days, CKD Stage 4, N = 9
[19] = ITT N = 1088, adjudicated primary endpoints
[20] = post-hoc ITT, Observed N, randomized 1088
[21] = post-hoc, Age ≤ 75, randomized 786
[22] = post-hoc, BL ACR ≤ 300, eGFR > 20, BNP ≤ 200, randomized 209
[23] = post-hoc, BL ACR ≤ 1000, eGFR > 20, Age ≤ 75, randomized 368
[24] = post-hoc, BL ACR ≤ 1000, randomized 798
[25] = post-hoc, BL BNP ≤ 200, randomized 559
[26] = post-hoc, BL eGFR > 20, randomized 735
[27] = post-hoc, No h/o HF, randomized 922

## COC(=O)[C@]12CCC(C)(C)C[C@H]1[C@H]1C(=O)C=C3[C@@]4(C)C=C(C#N)C(=O)C(C)(C)[C@@H]4CC[C@@]3(C)[C@]1(C)CC2 [Bardoxolone methyl, methyl-2-cyano-3,12-dioxooleana-1,9-dien-28-oic acid]
[1]; [4]
  ΔDBP, change from baseline: 0.2 ± 1.8
  ΔSBP, change from baseline: 0.1 ± 4.2
[1]; [5]
  ΔDBP, change from baseline: 1 ± 2
  ΔSBP, change from baseline: 0 ± 4.4
[1]; [6]
  ΔDBP, change from baseline: −1.5 ± 3.9
  ΔSBP, change from baseline: 0.3 ± 11
[1]; [7]
  ΔDBP, change from baseline: −1.4 ± 1.5
  ΔSBP, change from baseline: −1.5 ± 2.3
[1]; [8]
  ΔDBP, change from baseline: −1.3 ± 1.4
  ΔSBP, change from baseline: −2.1 ± 2 ^
[1]; [9]
  ΔDBP, change from baseline: −1.4 ± 5.6
  ΔSBP, change from baseline: 0.5 ± 9.1
[1]; [10]
  ΔDBP, change from baseline: 0.3 ± 1.3
  ΔSBP, change from baseline: −2.4 ± 3.1
[1]; [11]
  ΔDBP, change from baseline: −0.3 ± 1.3
  ΔSBP, change from baseline: −4.2 ± 3.4
[1]; [12]
  ΔDBP, change from baseline: 3.6 ± 4.5
  ΔSBP, change from baseline: 6.1 ± 6.7
[1]; [13]
  ΔDBP, change from baseline: −1 ± 1.2
  ΔSBP, change from baseline: 1.1 ± 2.3
[1]; [14]
  ΔDBP, change from baseline: −1.3 ± 1.5
  ΔSBP, change from baseline: −2.2 ± 3.3
[1]; [15]
  ΔDBP, change from baseline: −0.6 ± 1.9
  ΔSBP, change from baseline: 5 ± 2.8
[1]; [16]
  ΔDBP, change from baseline: 3.2 ± 2.2
  ΔSBP, change from baseline: 7.2 ± 6.2
[1]; [17]
  ΔDBP, change from baseline: −1.8 ± 3.9
  ΔSBP, change from baseline: −0.4 ± 13.8
[1]; [18]
  ΔDBP, change from baseline: 4.7 ± 2.5
  ΔSBP, change from baseline: 9.7 ± 7.3
[1]; 2.5 to 30 mg, 85 consecutive days, amorphous dispersion formulation
  Blood pressure changes: no dose-related trend in blood pressure changes or change at any individual dose level was noted
[1]; SDD 2.5 mg QD 85 days, N = 14
  AE, SOC Card: Cardiac failure congestive, patients n (%): 0
  AE, SOC Card: Oedema peripheral, patients n (%): 0
  AE, SOC Genrl: Oedema peripheral, patients n (%): 0
  AE, SOC Metab: Oedema peripheral, patients n (%): 0
  AE, SOC Resp: Dyspnoea exertional, patients n (%): 1 (7)
  AE, SOC Resp: Dyspnoea, patients n (%): 0
  SAE, SOC Card: Cardiac failure congestive, patients n (%): 0
[1]; SDD 5 mg QD 85 days, N = 25
  AE, SOC Card: Cardiac failure congestive, patients n (%): 0
  AE, SOC Card: Oedema peripheral, patients n (%): 0
  AE, SOC Genrl: Oedema peripheral, patients n (%): 3 (12)
  AE, SOC Metab: Oedema peripheral, patients n (%): 0
  AE, SOC Resp: Dyspnoea exertional, patients n (%): 0
  AE, SOC Resp: Dyspnoea, patients n (%): 0
  SAE, SOC Card: Cardiac failure congestive, patients n (%): 0
[1]; SDD 10 mg QD 85 days, N = 28
  AE, SOC Card: Cardiac failure congestive, patients n (%): 1 (4)
  AE, SOC Card: Oedema peripheral, patients n (%): 1 (4)
  AE, SOC Genrl: Oedema peripheral, patients n (%): 5 (18)
  AE, SOC Metab: Oedema peripheral, patients n (%): 0
  AE, SOC Resp: Dyspnoea exertional, patients n (%): 0
  AE, SOC Resp: Dyspnoea, patients n (%): 0
  SAE, SOC Card: Cardiac failure congestive, patients n (%): 1 (4)
[1]; SDD 15 mg QD 85 days, N = 50
  AE, SOC Card: Cardiac failure congestive, patients n (%): 0
  AE, SOC Card: Oedema peripheral, patients n (%): 1 (2)
  AE, SOC Genrl: Oedema peripheral, patients n (%): 3 (6)
  AE, SOC Metab: Oedema peripheral, patients n (%): 0
  AE, SOC Resp: Dyspnoea exertional, patients n (%): 0
  AE, SOC Resp: Dyspnoea, patients n (%): 0
  SAE, SOC Card: Cardiac failure congestive, patients n (%): 0
[1]; SDD 30 mg QD 85 days, N = 14
  AE, SOC Card: Cardiac failure congestive, patients n (%): 1 (7)
  AE, SOC Card: Oedema peripheral, patients n (%): 0
  AE, SOC Genrl: Oedema peripheral, patients n (%): 3 (21)
  AE, SOC Metab: Oedema peripheral, patients n (%): 1 (7)
  AE, SOC Resp: Dyspnoea exertional, patients n (%): 0
  AE, SOC Resp: Dyspnoea, patients n (%): 1 (7)
  SAE, SOC Card: Cardiac failure congestive, patients n (%): 1 (7)
BEACON, ITT, BARD 20 mg (N = 1088), deaths at database lock
  Occurrence of Death: 4.0%
BEACON, ITT, BARD 20 mg (N = 1088), events through last date of contact
  Occurrence of ESRD: 4.0%
[19]
  Patient's first event: CV death, patients: 26 n
  Patient's first event: Chronic dialysis, patients: 40 n
  Patient's first event: End stage renal disease (ESRD), patients: 43 n
  Patient's first event: Renal death, patients: 2 n
  Patient's first event: Renal transplant, patients: 1 n
ITT N = 1088, adjudicated, on or before study termination
  Composite primary efficacy outcome (ESRD or CV death), patients: 69 n
ITT, All Patients N = 1088
  SAE Infections and infestations, patients: 79
ITT, BL ACR ≤ 300, eGFR > 20, BNP ≤ 200, N = 209
  SAE Infections and infestations, patients: 9
ITT, BL ACR ≤ 1000, eGFR > 20, Age ≤ 75, N = 368
  SAE Infections and infestations, patients: 20
Safety Population N = 1092, 20 mg once daily
  Treatment-emergent SAE: Infections and infestations, patients: 79 n
Final analysis
  Fatal heart failure events: three
human, in vivo
  Hy's Law cases: no Hy's Law cases were observed
  Increase in BNP from baseline, Mean±SD: 225 ± 598 pg/mL
  K^+ Retention: None
  Mean WK 24 ΔeGFR: 6.1 and 5.5 and 7.6
  Mean increase in diastolic blood pressure: 1.4 mmHg
  Mean increase in systolic blood pressure: 1.9 mmHg
  N of patients with WK 24 BNP change 25% to 100% Increase: 45
  N of patients with WK 24 BNP change <25% Increase: 84
  N of patients with WK 24 BNP change ≥100% Increase: 82
  QTc prolongation: not associated with QTc prolongation
  SAE Endocrine disorders, patients: 1
human, in vivo, 24 weeks
  QTcF interval, change from baseline, 25th quartile: -13 ms
  QTcF interval, change from baseline, 75th quartile: 10 ms
  QTcF interval, change from baseline, Mean (SD): −0.9 (19.2) msec
  QTcF interval, change from baseline, Range (min, max): −88, 69
  QTcF interval, change from baseline, median: -1 ms
  QTcF interval, observed, 25th quartile: 407 ms
  QTcF interval, observed, 75th quartile: 443 ms
  QTcF interval, observed, Mean (SD): 425.8 (26.5) msec
  QTcF interval, observed, median: 425 ms
[20]
  All-Cause Death, patients: 44
  ESRD, patients with event: 47
[21]
  All-Cause Death, patients: 20
  ESRD, patients with event: 38
[22]
  All-Cause Death, patients: 5
  ESRD, patients with event: 1
[23]
  All-Cause Death, patients: 11
  ESRD, patients with event: 9
[24]
  All-Cause Death, patients: 32
  ESRD, patients with event: 21
[25]
  All-Cause Death, patients: 14
  ESRD, patients with event: 12
[26]
  All-Cause Death, patients: 27
  ESRD, patients with event: 18
[27]
  All-Cause Death, patients: 35
  ESRD, patients with event: 35
Prior to clinical database lock (Mar. 4, 2013)
  Deaths confirmed as cardiovascular, patients: 29
[2]; n = 40
  Urinary Magnesium, WK4 Δ from baseline, mean: −0.9 mmol/24 h
[2]; n = 43
  Urinary Magnesium, WK4, mean: 6.0 mmol/24 h
[2]; n = 57
  Urinary Potassium, WK4 Δ from baseline, mean: −7 mmol/24 h
  Urinary Sodium, WK4 Δ from baseline, mean: −27 mmol/24 h
[2]; n = 61
  Urinary Potassium, WK4, mean: 52 mmol/24 h
  Urinary Sodium, WK4, mean: 140 mmol/24 h
[2]; n = 63
  24-hour Urine Volume, WK4 Δ from baseline, mean: -247 mL
[2]; n = 64
  24-hour Urine Volume, WK4, mean: 1792 mL
[2]; n = 77
  Serum Magnesium, WK4, mean: 1.53 mEq/L
  Serum Magnesium, WK4 Δ from baseline, mean: −0.21 mEq/L
  Serum Potassium, WK4 Δ from baseline, mean: 0.10 mmol/L
  Serum Sodium, WK4, mean: 140.3 mmol/L
  Serum Sodium, WK4 Δ from baseline, mean: 0.2 mmol/L
[2]; n = 77, 20 mg once daily
  Serum Potassium, WK4, mean: 4.8 mmol/L
[3]; 20 mg or 80 mg once daily
  Change in blood pressure: did not differ from changes observed in placebo-treated patients
[3]; 20 or 80 mg
  QTcF, placebo-corrected changes (ΔΔQTcF): did not increase QTcF
